{"source": "patent US20050239854A1", "about": "“Body weight gain inhibitors” (priority 1999, published 2005)", "assay": "Body weight gain-reducing action in KKAy mice", "conditions": "female KKAy mice; for % control (blood glucose level): in admixture with the feed for 4 days, blood glucose relative to own control group = 100"}
{"smiles": "Cc1oc(-c2ccccc2)nc1COc1ccc(CO/N=C(\\CCC(=O)O)c2ccccc2)cc1", "note": "[compound of Production Example 3, E-4-[4-(5-methyl-2-phenyl-4-oxazolylmethoxy)benzyloxyimino]-4-phenylbutyric acid]", "values": [{"measurement": "% control (blood glucose level)", "value": 50, "unit": "%"}]}
{"smiles": "CN(CCOc1ccc(CC2SC(=O)NC2=O)cc1)c1ccccn1", "note": "(stereo not drawn) [rosiglitazone]", "values": [{"measurement": "effect on body weight (in words)", "setting": "4 days, dose that reduced the blood glucose level to 50-58%", "value": "significantly increased the body weight"}, {"measurement": "% control (blood glucose level)", "value": 58, "unit": "%"}]}
